ChEMBL document CHEMBL1201861, “Genomics of Drug Sensitity in Cancer screening data, Wellcome Trust Sanger Institute”

Assays:
Experiment in all cases: cells
KYSE-70 cell line = assay type: functional, cell-based; details: Homo sapiens;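 further: cell viability assay read-out, with IC50 expressing suppression of KYSE-70 cell growth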
Description: SANGER: Inhibition of human KYSE-70 cell growth in a cell viability assay.

HT-3 = assay type: functional, cell-based; details: Homo sapiens;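 further: growth inhibition measured with a cell viability readout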
Description: SANGER: Inhibition of human HT-3 cell growth in a cell viability assay.

RPMI-2650 = assay type: functional, cell-based; details: Homo sapiens
Description: SANGER: Inhibition of human RPMI-2650 cell growth in a cell viability assay.

NCI-H1563 = assay type: functional, cell-based; details: Homo sapiens;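 further: growth inhibition of human NCI-H1563 cells, read out with a cell viability assay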
Description: SANGER: Inhibition of human NCI-H1563 cell growth in a cell viability assay.

CAL-12T = assay type: functional, cell-based; details: Homo sapiens;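 further: growth inhibition of human CAL-12T cells, read out with a cell viability assay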
Description: SANGER: Inhibition of human CAL-12T cell growth in a cell viability assay.

SK-MEL-28 = assay type: functional, cell-based; details: Homo sapiens;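 further: growth inhibition of human SK-MEL-28 cells, read out with a cell viability assay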
Description: SANGER: Inhibition of human SK-MEL-28 cell growth in a cell viability assay.

GAMG = assay type: functional, cell-based; details: Homo sapiens;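 further: cell growth inhibition measured by a viability assay in the GAMG human cell line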
Description: SANGER: Inhibition of human GAMG cell growth in a cell viability assay.

AGS = assay type: functional, cell-based; details: Homo sapiens;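 further: growth inhibition of AGS cells, determined with a cell viability assay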
Description: SANGER: Inhibition of human AGS cell growth in a cell viability assay.

HT55 = assay type: functional, cell-based; details: Homo sapiens;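 further: cell viability readout measuring growth inhibition of human HT55 cells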
Description: SANGER: Inhibition of human HT55 cell growth in a cell viability assay.

LCLC-103H cell line = assay type: functional, cell-based; details: Homo sapiens
Description: SANGER: Inhibition of human LCLC-103H cell growth in a cell viability assay.

MEL-HO = assay type: functional, cell-based; details: Homo sapiens
Description: SANGER: Inhibition of human MEL-HO cell growth in a cell viability assay.

GP5d = assay type: functional, cell-based; details: Homo sapiens;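 further: growth inhibition of human GP5d cells, read out with a cell viability assay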
Description: SANGER: Inhibition of human GP5d cell growth in a cell viability assay.

VMRC-RCZ = assay type: functional, cell-based; details: Homo sapiens;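 further: growth inhibition measured with a cell viability assay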
Description: SANGER: Inhibition of human VMRC-RCZ cell growth in a cell viability assay.

MeWo = assay type: functional, cell-based; details: Homo sapiens;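 further: growth inhibition of MeWo cells, determined by a cell viability readout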
Description: SANGER: Inhibition of human Mewo cell growth in a cell viability assay.

NY = assay type: functional, cell-based; details: Homo sapiens
Description: SANGER: Inhibition of human NY cell growth in a cell viability assay.

PANC-08-13 = assay type: functional, cell-based; details: Homo sapiens;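 further: cell growth inhibition, measured with a cell viability assay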
Description: SANGER: Inhibition of human PANC-08-13 cell growth in a cell viability assay.

NUGC-3 = assay type: functional, cell-based; details: Homo sapiens;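 further: growth inhibition of human NUGC-3 cells, read out with a cell viability assay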
Description: SANGER: Inhibition of human NUGC-3 cell growth in a cell viability assay.

SNU-423 = assay type: functional, cell-based; details: Homo sapiens
Description: SANGER: Inhibition of human SNU-423 cell growth in a cell viability assay.

HCC70 = assay type: functional, cell-based; details: Homo sapiens;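 further: cell viability assay measuring how strongly the compound suppresses proliferation of HCC70 cells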
Description: SANGER: Inhibition of human HCC70 cell growth in a cell viability assay.

M059J = assay type: functional, cell-based; details: Homo sapiens;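 further: growth inhibition of M059J cells, read out with a cell viability assay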
Description: SANGER: Inhibition of human M059J cell growth in a cell viability assay.

NCI-H460 = assay type: functional, cell-based; details: Homo sapiens;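 further: cell viability assay scoring growth inhibition of human NCI-H460 cells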
Description: SANGER: Inhibition of human NCI-H460 cell growth in a cell viability assay.

BHY = assay type: functional, cell-based; details: Homo sapiens;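 further: cell growth inhibition read out by a viability assay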
Description: SANGER: Inhibition of human BHY cell growth in a cell viability assay.

Ca9-22 = assay type: functional, cell-based; details: Homo sapiens;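 further: growth inhibition of Ca9-22 cells, read out with a cell viability assay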
Description: SANGER: Inhibition of human Ca9-22 cell growth in a cell viability assay.

MEL-JUSO = assay type: functional, cell-based; details: Homo sapiens;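 further: growth inhibition of human MEL-JUSO cells, read out with a cell viability assay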
Description: SANGER: Inhibition of human MEL-JUSO cell growth in a cell viability assay.

G-401 = assay type: functional, cell-based; details: Homo sapiens
Description: SANGER: Inhibition of human G-401 cell growth in a cell viability assay.

D-336MG = assay type: functional, cell-based, Homo sapiens; details: Homo sapiens, D-336MG
Description: SANGER: Inhibition of human D-336MG cell growth in a cell viability assay.

KP-N-YN = assay type: functional, cell-based; details: Homo sapiens;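 further: growth inhibition of KP-N-YN cells, read out with a cell viability assay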
Description: SANGER: Inhibition of human KP-N-YN cell growth in a cell viability assay.

LK-2 = assay type: functional, cell-based; details: Homo sapiens;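 further: growth inhibition of LK-2 cells, read out with a viability assay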
Description: SANGER: Inhibition of human LK-2 cell growth in a cell viability assay.

HEC-1 = assay type: functional, cell-based; details: Homo sapiens;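 further: growth inhibition of the cell line, read out with a cell viability assay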
Description: SANGER: Inhibition of human HEC-1 cell growth in a cell viability assay.

HCC38 = assay type: functional, cell-based; details: Homo sapiens;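 further: cell viability assay on the human HCC38 cell line, with IC50 marking the concentration that inhibits cell growth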
Description: SANGER: Inhibition of human HCC38 cell growth in a cell viability assay.

SW-620 = assay type: functional, cell-based; details: Homo sapiens;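 further: growth inhibition of human SW-620 cells, measured by a cell viability assay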
Description: SANGER: Inhibition of human SW620 cell growth in a cell viability assay.

SAS = assay type: functional, cell-based; details: Homo sapiens;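 further: growth inhibition of SAS cells, read out with a cell viability assay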
Description: SANGER: Inhibition of human SAS cell growth in a cell viability assay.

EGI-1 = assay type: functional, cell-based; details: Homo sapiens;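 further: cell viability readout used to gauge growth inhibition of EGI-1 cells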
Description: SANGER: Inhibition of human EGI-1 cell growth in a cell viability assay.

HPAF-II = assay type: functional, cell-based; details: Homo sapiens;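 further: growth inhibition of HPAF-II cells, read out with a cell viability assay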
Description: SANGER: Inhibition of human HPAF-II cell growth in a cell viability assay.

HCC1806 = assay type: functional, cell-based; details: Homo sapiens;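 further: growth inhibition of the cancer cell line, determined with a cell viability assay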
Description: SANGER: Inhibition of human HCC1806 cell growth in a cell viability assay.

HTC-C3 = assay type: functional, cell-based; details: Homo sapiens;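 further: inhibition of cell growth, read out with a cell viability assay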
Description: SANGER: Inhibition of human HTC-C3 cell growth in a cell viability assay.

G-402 = assay type: functional, cell-based; details: Homo sapiens
Description: SANGER: Inhibition of human G-402 cell growth in a cell viability assay.

MG-63 = assay type: functional, cell-based; details: Homo sapiens;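 further: growth inhibition of human MG-63 cells, read out with a cell viability assay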
Description: SANGER: Inhibition of human MG-63 cell growth in a cell viability assay.

JEG-3 = assay type: functional, cell-based; details: Homo sapiens;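 further: growth inhibition of human JEG-3 cells, read out with a cell viability assay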
Description: SANGER: Inhibition of human JEG-3 cell growth in a cell viability assay.

T98G = assay type: functional, cell-based; details: Homo sapiens;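 further: growth inhibition of T98G cells, read out by a cell viability assay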
Description: SANGER: Inhibition of human T98G cell growth in a cell viability assay.

BT-20 = assay type: functional, cell-based; details: Homo sapiens;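 further: cell viability assay measuring suppression of growth in human BT-20 cells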
Description: SANGER: Inhibition of human BT-20 cell growth in a cell viability assay.

TCC-SUP = assay type: functional, cell-based; details: Homo sapiens;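 further: growth inhibition of TCC-SUP cells, read out with a cell viability assay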
Description: SANGER: Inhibition of human TCCSUP cell growth in a cell viability assay.

MDA-MB-361 = assay type: functional, cell-based; details: Homo sapiens
EC-GI-10 = assay type: functional, cell-based, Homo sapiens; details: Homo sapiens, EC-GI-10
Description: SANGER: Inhibition of human EC-GI-10 cell growth in a cell viability assay.

SW626 = assay type: functional, cell-based; details: Homo sapiens;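 further: growth inhibition of SW626 cells, measured with a cell viability assay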
Description: SANGER: Inhibition of human SW626 cell growth in a cell viability assay.

PC-14 = assay type: functional, cell-based; details: Homo sapiens;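 further: cell viability assay measuring inhibition of PC-14 cell growth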
Description: SANGER: Inhibition of human PC-14 cell growth in a cell viability assay.

NCI-H630 = assay type: functional, cell-based; details: Homo sapiens;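 further: growth inhibition of NCI-H630 cells, read out with a cell viability assay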
Description: SANGER: Inhibition of human NCI-H630 cell growth in a cell viability assay.

MKN-28 = assay type: functional, cell-based; details: Homo sapiens;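 further: cell viability assay read-out, IC50 reflects suppression of growth of human MKN-28 cells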
Description: SANGER: Inhibition of human MKN28 cell growth in a cell viability assay.

Hs-578T = assay type: functional, cell-based; details: Homo sapiens
Description: SANGER: Inhibition of human Hs-578-T cell growth in a cell viability assay.

NCI-H510A = assay type: functional, cell-based, Homo sapiens; details: Homo sapiens, NCI-H510A;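 further: growth inhibition of NCI-H510A cells, read out with a cell viability assay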
Description: SANGER: Inhibition of human NCI-H510A cell growth in a cell viability assay.

NCI-H727 = assay type: functional, cell-based; details: Homo sapiens;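 further: growth inhibition of human NCI-H727 cells, read out with a cell viability assay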
Description: SANGER: Inhibition of human NCI-H727 cell growth in a cell viability assay.

NCI-H1993 = assay type: functional, cell-based; details: Homo sapiens;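 further: growth inhibition of the cancer cell line, assessed with a cell viability assay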
Description: SANGER: Inhibition of human NCI-H1993 cell growth in a cell viability assay.

NCI-H522 = assay type: functional, cell-based; details: Homo sapiens;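 further: cell viability assay measuring growth inhibition of human NCI-H522 cells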
Description: SANGER: Inhibition of human NCI-H522 cell growth in a cell viability assay.

CN(NC(=O)CC(=O)NN(C)C(=S)c1ccccc1)C(=S)c1ccccc1 [ELESCLOMOL]
IC50 (KYSE-70 cell line): 54 nM | IC50 (HT-3): > 200 nM | IC50 (RPMI-2650): 34.1 nM | IC50 (NCI-H1563): 4.13 nM | IC50 (CAL-12T): 63 nM | IC50 (SK-MEL-28): 79.7 nM | IC50 (GAMG): 2.51 nM | IC50 (AGS): 2.86 nM | IC50 (HT55): > 200 nM | IC50 (LCLC-103H cell line): > 200 nM | IC50 (MEL-HO): > 200 nM | IC50 (GP5d): > 200 nM | IC50 (VMRC-RCZ): 108 nM | IC50 (MeWo): 26.3 nM | IC50 (NY): 37.6 nM | IC50 (PANC-08-13): 9.63 nM | IC50 (NUGC-3): 7.33 nM | IC50 (SNU-423): 15.2 nM | IC50 (HCC70): 53.1 nM | IC50 (M059J): 20.6 nM | IC50 (NCI-H460): > 200 nM | IC50 (BHY): 107 nM | IC50 (Ca9-22): 4.25 nM | IC50 (MEL-JUSO): 10.6 nM | IC50 (G-401): 5.43 nM | IC50 (D-336MG): 23.4 nM | IC50 (KP-N-YN): 65.6 nM | IC50 (LK-2): 19.7 nM | IC50 (HEC-1): 8.25 nM | IC50 (HCC38): > 200 nM | IC50 (SW-620): 40.7 nM | IC50 (SAS): 22.5 nM | IC50 (EGI-1): 8.38 nM | IC50 (HPAF-II): 38.3 nM | IC50 (HCC1806): 23.5 nM | IC50 (HTC-C3): 30.4 nM | IC50 (G-402): 16.2 nM | IC50 (MG-63): > 200 nM | IC50 (JEG-3): 8.84 nM | IC50 (T98G): 34.3 nM | IC50 (BT-20): 35.2 nM | IC50 (TCC-SUP): 13.5 nM | IC50 (MDA-MB-361): 25.9 nM | IC50 (EC-GI-10): 44.6 nM | IC50 (SW626): 54 nM | IC50 (PC-14): 24.7 nM | IC50 (NCI-H630): > 200 nM | IC50 (MKN-28): 14 nM | IC50 (Hs-578T): 15.5 nM | IC50 (NCI-H510A): 12.4 nM | IC50 (NCI-H727): > 200 nM | IC50 (NCI-H1993): > 200 nM

CC1(C)CCC(c2ccc(Cl)cc2)=C(CN2CCN(c3ccc(C(=O)NS(=O)(=O)c4ccc(N[C@H](CCN5CCOCC5)CSc5ccccc5)c(S(=O)(=O)C(F)(F)F)c4)cc3)CC2)C1 [NAVITOCLAX]
IC50 (KYSE-70 cell line): > 2000 nM | IC50 (HT-3): > 2000 nM | IC50 (RPMI-2650): > 2000 nM | IC50 (NCI-H1563): > 2000 nM | IC50 (CAL-12T): > 2000 nM | IC50 (SK-MEL-28): > 2000 nM | IC50 (GAMG): > 2000 nM | IC50 (AGS): > 2000 nM | IC50 (HT55): > 2000 nM | IC50 (LCLC-103H cell line): > 2000 nM | IC50 (MEL-HO): > 2000 nM | IC50 (GP5d): > 2000 nM | IC50 (VMRC-RCZ): > 2000 nM | IC50 (MeWo): > 2000 nM | IC50 (NY): > 2000 nM | IC50 (PANC-08-13): > 2000 nM | IC50 (NUGC-3): > 2000 nM | IC50 (SNU-423): 1780 nM | IC50 (HCC70): > 2000 nM | IC50 (M059J): > 2000 nM | IC50 (NCI-H460): > 2000 nM | IC50 (BHY): > 2000 nM | IC50 (Ca9-22): > 2000 nM | IC50 (G-401): > 2000 nM | IC50 (D-336MG): > 2000 nM | IC50 (KP-N-YN): 236 nM | IC50 (LK-2): > 2000 nM | IC50 (HEC-1): > 2000 nM | IC50 (HCC38): 802 nM | IC50 (SW-620): > 2000 nM | IC50 (SAS): > 2000 nM | IC50 (EGI-1): > 2000 nM | IC50 (HPAF-II): 926 nM | IC50 (HCC1806): > 2000 nM | IC50 (HTC-C3): > 2000 nM | IC50 (G-402): > 2000 nM | IC50 (MG-63): > 2000 nM | IC50 (JEG-3): > 2000 nM | IC50 (T98G): > 2000 nM | IC50 (BT-20): > 2000 nM | IC50 (TCC-SUP): > 2000 nM | IC50 (MDA-MB-361): > 2000 nM | IC50 (SW626): > 2000 nM | IC50 (PC-14): > 2000 nM | IC50 (NCI-H630): > 2000 nM | IC50 (MKN-28): > 2000 nM | IC50 (Hs-578T): > 2000 nM | IC50 (NCI-H522): > 2000 nM | IC50 (NCI-H727): > 2000 nM | IC50 (NCI-H1993): > 2000 nM

O=C(NCCCNc1nc(Nc2cccc(NC(=O)N3CCCC3)c2)ncc1I)c1cccs1 [BX-795]
IC50 (KYSE-70 cell line): > 5000 nM | IC50 (HT-3): > 5000 nM | IC50 (RPMI-2650): > 5000 nM | IC50 (NCI-H1563): > 5000 nM | IC50 (CAL-12T): 4790 nM | IC50 (SK-MEL-28): > 5000 nM | IC50 (GAMG): 2830 nM | IC50 (AGS): 2560 nM | IC50 (HT55): > 5000 nM | IC50 (LCLC-103H cell line): 4070 nM | IC50 (MEL-HO): > 5000 nM | IC50 (GP5d): > 5000 nM | IC50 (VMRC-RCZ): 2770 nM | IC50 (MeWo): > 5000 nM | IC50 (NY): > 5000 nM | IC50 (PANC-08-13): > 5000 nM | IC50 (NUGC-3): > 5000 nM | IC50 (SNU-423): 3910 nM | IC50 (HCC70): > 5000 nM | IC50 (M059J): 1380 nM | IC50 (NCI-H460): 2440 nM | IC50 (BHY): > 5000 nM | IC50 (Ca9-22): 2130 nM | IC50 (G-401): 2560 nM | IC50 (D-336MG): 4300 nM | IC50 (KP-N-YN): > 5000 nM | IC50 (LK-2): > 5000 nM | IC50 (HEC-1): 4090 nM | IC50 (HCC38): > 5000 nM | IC50 (SW-620): > 5000 nM | IC50 (SAS): > 5000 nM | IC50 (EGI-1): > 5000 nM | IC50 (HPAF-II): > 5000 nM | IC50 (HCC1806): > 5000 nM | IC50 (HTC-C3): > 5000 nM | IC50 (G-402): 1470 nM | IC50 (MG-63): 1690 nM | IC50 (JEG-3): > 5000 nM | IC50 (T98G): 2390 nM | IC50 (BT-20): > 5000 nM | IC50 (TCC-SUP): > 5000 nM | IC50 (MDA-MB-361): > 5000 nM | IC50 (SW626): > 5000 nM | IC50 (PC-14): > 5000 nM | IC50 (NCI-H630): > 5000 nM | IC50 (MKN-28): > 5000 nM | IC50 (Hs-578T): 2420 nM | IC50 (NCI-H522): > 5000 nM | IC50 (NCI-H727): > 5000 nM | IC50 (NCI-H1993): > 5000 nM
